According to article PMC10648877, “Novel Substituted Azoloazines with Anticoagulant Activity” (International Journal of Molecular Sciences, 2023):
“And” between values parts separate entries of the source, which are not always exact repeats. Identical values can stand only once.

What was measured:
[1] = test system: platelet-poor plasma (PPP); test: Activated partial thromboplastin time (APTT), rabbit blood coagulogram in vitro; assay type: biochemical; conditions: 100 μM; for APTT: M ± m, n = 6;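 for all read-outs here: clotting time read chronometrically on a hemocoagulometer with commercial reagent kits, one of several coagulogram parameters alongside thrombin and prothrombin time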
Experimental: Test compounds and the reference drug were evaluated at a concentration of 100 μM. Effect on rabbit blood coagulograms in vitro was determined chronometrically with a SOLAR hemocoagulometer (Minsk, Belarus) using commercial kits (Technology-Standard, Barnaul, Russia) as per the manufacturer’s instructions. The following parameters were determined: activated partial thromboplastin time, thrombin time, and prothrombin time.

LPS-treated PPP [2] = test: APTT, rabbit blood treated with LPS in vitro (hypercytokinemia); assay type: biochemical; conditions: 100 μM; for APTT: rabbit blood treated with LPS in vitro
Experimental: (§1) Hypercytokinemia conditions were modeled by incubation of whole blood with S. typhimurium LPS (Sigma Aldrich, St. Louis, MO, USA) at a final concentration of 20 ng/mL and subsequent preparation of PPP.

LPS-treated PPP [3] = test: Thrombin time, rabbit blood treated with LPS in vitro (hypercytokinemia); assay type: biochemical; conditions: for Δ % of Thrombin Time Prolongation Relative To Control + LPS: with LPS; for prolongation of thrombin time relative to LPS-treated blood control: LPS-treated rabbit blood in vitro
Experimental: as §1
(§2) The calculation of EC50 (effective concentration that prolongs the time of clot formation by 50%) was performed using linear regression analysis.

LPS-treated PPP [4] = test: Prothrombin time, rabbit blood treated with LPS in vitro (hypercytokinemia); assay type: biochemical; conditions: 100 μM
Experimental: as §1

[5] = test system: platelet-poor plasma (PPP); test: Ecarin clotting time in vitro; assay type: biochemical; conditions: for EC50: concentration range 100 to 1 μM
Experimental: The ecarin clotting time was designed for the determination of antithrombin anticoagulant activity in platelet-poor plasma. Venous blood was collected into a 15 mL Falcon type plastic tube with 3.8% sodium citrate solution (0.5 mL of sodium citrate per 5 mL of blood), centrifuged on a CM-6M centrifuge (Elmi, Riga, Latvia) at room temperature from 18 to 25 °C for 15 min at 3000 rpm (1200× g). The obtained plasma was withdrawn using an automatic pipette and transferred to a separate clean, dry plastic tube. After that, the obtained plasma was recentrifuged under the same conditions and the upper third of the plasma was taken for analysis.
The ecarin stock solution (STA-ECT, Stago, Düsseldorf, Germany) was prepared according to the manufacturer’s instructions and diluted to 4 units/mL with HEPES-buffered saline (0.2 M) containing 0.025 M calcium chloride.
The tested samples were investigated in the concentration range from 100 to 1 μM for IC50 determination.
Prepared reagents and platelet-poor plasma were heated to 37 °C. The assay was performed on a Solar CGL2120 coagulometer (Belarus), adding 50 µL of the reagent ecarin to 100 µL of PPP and recording the clotting time.
as §2

coagulograms of rats [6] = test: APTT after single intragastric administration, rats without hypercytokinemia; assay type: in vivo, rat; conditions: dabigatran etexilate 12 mg/kg; for prolongation of APTT compared to the control: intact rats, 2 h after intragastric administration, 5d 5.5 mg/kg; for APTT: rats without hypercytokinemia, single intragastric dose, 2 h, 5d 5.5 mg/kg (equimolar)
Experimental: (§3) Distilled water was used as a solvent. In all experiments, control animals were injected with an equivalent volume of a vehicle. The reference drug dabigatran etexilate was administered to rats 2 h before the study at a 12 mg/kg dose (equivalent to the human dose, taking into account the interspecies conversion factor). Compound 5d was administered to rats 2 h before the study in a 5.5 mg/kg dose, equimolar to the dose of dabigatran etexilate.
(§4) To stabilize the blood, a 3.8% aqueous solution of sodium citrate (pH 6.0) was used in a ratio of 9:1. Coagulogram parameters of platelet-poor plasma were measured with a SOLAR coagulometer according to the methods described above.

coagulograms of rats [7] = test: Thrombin time after single intragastric administration, rats without hypercytokinemia; assay type: in vivo, rat; conditions: dabigatran etexilate 12 mg/kg; for increase of thrombin time relative to intact control: intact rats, 2 h after intragastric administration, 5d 5.5 mg/kg; for TT: rats without hypercytokinemia, single intragastric dose, 2 h, 5d 5.5 mg/kg (equimolar)
Experimental: as §3, §4

coagulograms of rats [8] = test: Prothrombin time after single intragastric administration, rats without hypercytokinemia; assay type: in vivo, rat; conditions: for PT: single intragastric dose, 2 h, dabigatran etexilate 12 mg/kg, 5d 5.5 mg/kg (equimolar)
Experimental: as §3, with “factor).” for “factor). Compound 5d was administered to rats 2 h before the study in a 5.5 mg/kg dose, equimolar to the dose of dabigatran etexilate.”
(§5) Coagulogram parameters of platelet-poor plasma were measured with a SOLAR coagulometer according to the methods described above.

coagulograms of rats [9] = test: APTT after single intragastric administration, rats with hypercytokinemia (LPS); assay type: in vivo, rat; conditions: dabigatran etexilate 12 mg/kg; for prolongation of APTT in relation to the LPS control group: LPS-injected rats, 5d 5.5 mg/kg intragastric; for APTT: rats with hypercytokinemia (LPS 2 mg/kg i.v.), single intragastric dose, 2 h, 5d 5.5 mg/kg
Experimental: as §3, §4
(§6) Hypercytokinemia conditions were modeled by an intravenous injection of S. typhimurium LPS (Sigma Aldrich, St. Louis, MO, USA) at a final dose of 2 mg/kg into the tail vein of the rats 2 h before the administration of the substances. The evaluation of anticoagulant activity was conducted according to the methods described above.

coagulograms of rats [10] = test: Thrombin time after single intragastric administration, rats with hypercytokinemia (LPS); assay type: in vivo, rat; conditions: for increase of thrombin time in relation to the LPS control group: LPS-injected rats, 5d 5.5 mg/kg intragastric; for antithrombin effect under systemic inflammation reaction versus its absence: rats, single intragastric administration
Experimental: as §3, §4, §6

coagulograms of rats [11] = test: Prothrombin time after single intragastric administration, rats with hypercytokinemia (LPS); assay type: in vivo, rat; conditions: for PT: rats with hypercytokinemia (LPS 2 mg/kg i.v.), single intragastric dose, 2 h, dabigatran etexilate 12 mg/kg, 5d 5.5 mg/kg; for effect on prothrombin time: rats with systemic inflammatory reaction (LPS)
Experimental: as §3, with “factor).” for “factor). Compound 5d was administered to rats 2 h before the study in a 5.5 mg/kg dose, equimolar to the dose of dabigatran etexilate.”
as §5, §6

[12] = test system: platelet-poor plasma (PPP); test: Thrombin time (TT), rabbit blood coagulogram in vitro; assay type: biochemical; conditions: for Δ% of Thrombin Time Prolongation Relative to Control / EC50: without LPS; for TT: M ± m, n = 6; for EC50: concentration that prolongs clot formation time by 50%, read-out: EC50, μM (thrombin time prolongation)
[13] = test system: platelet-poor plasma (PPP); test: Prothrombin time (PT), rabbit blood coagulogram in vitro; conditions: 100 μM; for PT: M ± m, n = 6;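 for all read-outs here: clotting time read chronometrically on a hemocoagulometer using commercial reagent kits, with dabigatran etexilate at the same concentration as reference anticoagulant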
Experimental: The study was performed on platelet-poor plasma (PPP) stabilized with a 3.8% sodium citrate solution in a ratio of 9:1 according to the method described in [34]. Dabigatran etexilate (Boehringer Ingelheim Pharma GmbH and Co., Ingelheim am Rhein, Germany) was used as the reference drug. Test compounds and the reference drug were evaluated at a concentration of 100 μM. Effect on rabbit blood coagulograms in vitro was determined chronometrically with a SOLAR hemocoagulometer (Minsk, Belarus) using commercial kits (Technology-Standard, Barnaul, Russia) as per the manufacturer’s instructions. The following parameters were determined: activated partial thromboplastin time, thrombin time, and prothrombin time.

[14] = rats with hypercytokinemia (LPS 2 mg/kg i.v.), single intragastric dose, 2 h, dabigatran etexilate 12 mg/kg, 5d 5.5 mg/kg

SMILES	increase of APTT relative to the control [1]	APTT [1]	APTT (LPS-treated PPP [2])	Δ % of Thrombin Time Prolongation Relative To Control + LPS (LPS-treated PPP [3]; 1 μM)	Δ % of Thrombin Time Prolongation Relative To Control + LPS (LPS-treated PPP [3]; 5 μM)	Δ % of Thrombin Time Prolongation Relative To Control + LPS (LPS-treated PPP [3]; 10 μM)	prolongation of thrombin time relative to LPS-treated blood control (LPS-treated PPP [3]; 100 μM)	PT (LPS-treated PPP [4])	ecarin clotting time ([5]; 1 μM)	ecarin clotting time ([5]; 10 μM)	EC50 [5]	prolongation of APTT compared to the control (coagulograms of rats [6])	APTT (coagulograms of rats [6])	increase of thrombin time relative to intact control (coagulograms of rats [7])	TT (coagulograms of rats [7])	PT (coagulograms of rats [8])	prolongation of APTT in relation to the LPS control group (coagulograms of rats [9])	APTT (coagulograms of rats [9])	increase of thrombin time in relation to the LPS control group (coagulograms of rats [10]; dabigatran etexilate 12 mg/kg)	antithrombin effect under systemic inflammation reaction versus its absence (coagulograms of rats [10])	other results
C1=C(c2cccs2)n2ncnc2NC1c1cccs1 (stereo not drawn) [Compound 5d, 7,5-Di(2-thienyl)-4,5-dihydro-[1,2,4]triazolo[1,5-a]pyrimidine]	1.3 times	61.78 ± 4.58 s	61.78 ± 4.58 s	56.3% and 56.3 ± 1.1 %	234.1% and 234.1 ± 4.2 ^#$ %	354.1% and 354.1 ± 6.5 ^#$ %	17.0 times	14.08 ± 0.4 s	40.2 s	50.5 s	17900 nM	1.5 times	59.2 ± 8.3 s	5.6 times	325.3 ± 5.1 s	24.5 ± 1.1 s	1.6 times	28.7 ± 1.0 s	14.5 times	twice as pronounced	ecarin clotting time ([5]; 100 μM): 81.3 s; TT, s (coagulograms of rats [10]; [14]): 640.3 ± 7.4 ^#$ s; PT (coagulograms of rats [11]): 26.4 ± 1.4 s; effect on prothrombin time (coagulograms of rats [11]): neither the test compound nor dabigatran etexilate had an effect; Δ% of Thrombin Time Prolongation Relative to Control ([12]; 1 μM): 46.5% and 46.5 ± 6.7 %; Δ% of Thrombin Time Prolongation Relative to Control ([12]; 5 μM): 194.1% and 194.1 ± 10.0 %; Δ% of Thrombin Time Prolongation Relative to Control ([12]; 10 μM): 467.1% and 467.1 ± 14.4 %; TT ([12]; rabbit blood in vitro, 100 μM): 154.43 ± 11.14 s; prolongation of thrombin time exceeding dabigatran etexilate ([12]; rabbit blood in vitro, 100 μM, versus reference drug): 2.2 times; EC50 [12]: 1.25 µM and 1.3 µM; effect on prothrombin time [13]: did not affect the prothrombin time; PT [13]: 14.08 ± 0.4 s
CCCCCCOC(=O)N=C(N)c1ccc(NCc2nc3cc(C(=O)N(CCC(=O)OCC)c4ccccn4)ccc3n2C)cc1 [Dabigatran etexilate, reference compound]	1.6 times	75.26 ± 2.61 s	135.13 ± 15.17 s	51.7% and 51.7 ± 0.5%	208.6%	292.0%	14.0 times	15.73 ± 0.20 s	41.6 s	54.1 s	10500 nM	3.6 times	137.5 ± 2.2 s	10.5 times	603.9 ± 14.2 s	31.2 ± 1.3 s	2.2 times	41.0 ± 2.0 s	12.8 times	did not change	prolongation of APTT relative to LPS-treated blood (LPS-treated PPP [2]; LPS-treated rabbit blood in vitro): 2.3 times; TT (LPS-treated PPP [3]; rabbit blood treated with LPS in vitro, 100 μM): 125.45 ± 1.54 s; lengthening of ecarin clotting time compared to control ([5]; 100 μM): 2.3 fold; effect on prothrombin time (coagulograms of rats [8]): did not change; TT (coagulograms of rats [10]; [14]): 566.1 ± 11.5 s; PT (coagulograms of rats [11]): 28.1 ± 1.0 s; effect on prothrombin time (coagulograms of rats [11]): neither the test compound nor dabigatran etexilate had an effect; Δ% of Thrombin Time Prolongation Relative to Control ([12]; 0.1 μM): 1.4 ± 0.4 %; Δ% of Thrombin Time Prolongation Relative to Control ([12]; 1 μM): 42.3 ± 5.6 %; Δ% of Thrombin Time Prolongation Relative to Control ([12]; 1 μM, listed as dabigatran etexilate): 42.3%; Δ% of Thrombin Time Prolongation Relative to Control ([12]; 5 μM): 176.1 ± 15.3 %; Δ% of Thrombin Time Prolongation Relative to Control ([12]; 5 μM, listed as dabigatran etexilate): 176.1%; thrombin time ([12]; 10 μM, intact PPP): 46.8 s; Δ% of Thrombin Time Prolongation Relative to Control ([12]; 10 μM): 302.0 ± 34.4 %; Δ% of Thrombin Time Prolongation Relative to Control ([12]; 10 μM, listed as dabigatran etexilate): 302.0%; increase of thrombin time relative to the control ([12]; rabbit blood in vitro, 100 μM): 6.0 times; TT ([12]; rabbit blood in vitro, 100 μM): 70.23 ± 3.15 s; EC50 [12]: 1.4 µM; effect on prothrombin time [13]: without changing the prothrombin time; PT [13]: 14.20 ± 0.38 s
